Measured values published in ChEMBL document CHEMBL1201862, “PubChem BioAssay data set” (2004).
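Protocol summary: plate cells (96-well), add compound at 5 concentrations, incubate 48 h, interpolate endpoints linearly. At the GI50, growth is halved.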 Activity calls are given as the source filed them. Cut-off read from the data, not from the text of the source: active = GI50 up to about 1.1 µM and inactive = higher.

Assays:
Assay in all cases: NCI-60 cell line screen, 48 h
A549 = tested on: A549
CAKI-1 = tested on: CAKI-1
COLO 205 = tested on: COLO 205
EKVX = tested on: EKVX
HCT-116 = tested on: HCT-116
HT-29 = tested on: HT-29
LOX IMVI = tested on: LOX IMVI
MCF7 = tested on: MCF7
Malme-3M = tested on: Malme-3M
NCI-H522 = tested on: NCI-H522
RPMI-8226 = tested on: RPMI-8226
SF-295 = tested on: SF-295
SK-MEL-2 = tested on: SK-MEL-2
SK-OV-3 = tested on: SK-OV-3
SN12C = tested on: SN12C
SNB-19 = tested on: SNB-19
SR = tested on: SR
U-251 = tested on: U-251
UACC-257 = tested on: UACC-257
UACC-62 = tested on: UACC-62

SMILES | GI50 (A549) | GI50 (CAKI-1) | GI50 (COLO 205) | GI50 (EKVX) | GI50 (HCT-116) | GI50 (HT-29) | GI50 (LOX IMVI) | GI50 (MCF7) | GI50 (Malme-3M) | GI50 (NCI-H522) | GI50 (RPMI-8226) | GI50 (SF-295) | GI50 (SK-MEL-2) | GI50 (SK-OV-3) | GI50 (SN12C) | GI50 (SNB-19) | GI50 (SR) | GI50 (U-251) | GI50 (UACC-257) | GI50 (UACC-62)
CN(C)c1ccc(C=c2c3ccccc3n3c2c2ccccc2[n+]3C)cc1 | 3.73 µM (inactive) | 1.08 µM (active) | 0.0682 µM (active) | 2.65 µM (inactive) | 0.354 µM (active) | 0.689 µM (active) | 0.597 µM (active) | 0.822 µM (active) | 0.392 µM (active) | 0.174 µM (active) | 0.138 µM (active) | 1.52 µM (inactive) | 0.258 µM (active) | 2.64 µM (inactive) | 0.518 µM (active) | 1.25 µM (inactive) | 0.199 µM (active) | 0.196 µM (active) | 0.33 µM (active) | 0.305 µM (active)
NC(CCCCNC(=O)C(Cc1ccccc1)NC(=O)OCc1ccccc1)C(=O)NC(CCCCNC(=O)C(Cc1ccccc1)NC(=O)OCc1ccccc1)C(=O)NC(CCCCNC(=O)C(Cc1ccccc1)NC(=O)OCc1ccccc1)C(=O)NC(CCCCNC(=O)C(Cc1ccccc1)NC(=O)OCc1ccccc1)C(=O)NC(CCCCNC(=O)C(Cc1ccccc1)NC(=O)OCc1ccccc1)C(=O)NC(CCCCNC(=O)C(Cc1ccccc1)NC(=O)OCc1ccccc1)C(=O)O (centres undefined) | > 100 µM (inactive) | > 100 µM (inactive) | – | – | > 100 µM (inactive) | > 100 µM (inactive) | > 100 µM (inactive) | > 100 µM (inactive) | > 100 µM (inactive) | > 100 µM (inactive) | > 100 µM (inactive) | – | > 100 µM (inactive) | – | > 100 µM (inactive) | > 100 µM (inactive) | > 100 µM (inactive) | > 100 µM (inactive) | > 100 µM (inactive) | > 100 µM (inactive)
CO[C@@H]1C[C@H]2[C@@H]3CC[C@H]([C@H](C)CO)[C@@]3(C)CC[C@@H]2[C@@]2(C)CC[C@H]3C[C@]312 | 69 µM (inactive) | 5.08 µM (inactive) | 20.1 µM (inactive) | 12.5 µM (inactive) | 30.2 µM (inactive) | 20.7 µM (inactive) | 18.8 µM (inactive) | 19.2 µM (inactive) | > 100 µM (inactive) | 56 µM (inactive) | 18.3 µM (inactive) | 28.5 µM (inactive) | – | – | 53.7 µM (inactive) | 67.6 µM (inactive) | 37.5 µM (inactive) | 27.6 µM (inactive) | 35.6 µM (inactive) | –
C=C1CC2CCCC12C=O (centres undefined) | > 10 µM (inactive) | > 10 µM (inactive) | > 10 µM (inactive) | – | > 10 µM (inactive) | > 10 µM (inactive) | > 10 µM (inactive) | > 10 µM (inactive) | > 10 µM (inactive) | > 10 µM (inactive) | > 10 µM (inactive) | > 10 µM (inactive) | – | > 10 µM (inactive) | > 10 µM (inactive) | > 10 µM (inactive) | > 10 µM (inactive) | > 10 µM (inactive) | > 10 µM (inactive) | > 10 µM (inactive)
Brc1ccc2c([C@H]3CN[C@@H](c4c[nH]c5cc(Br)ccc45)CN3)c[nH]c2c1 | 2.8 µM (inactive) | 2.94 µM (inactive) | 1.57 µM (inactive) | 10.5 µM (inactive) | 1.66 µM (inactive) | 1.92 µM (inactive) | 1.83 µM (inactive) | 1.9 µM (inactive) | 2.56 µM (inactive) | 1.57 µM (inactive) | 2.48 µM (inactive) | 7.1 µM (inactive) | 5.07 µM (inactive) | 8.99 µM (inactive) | 5.19 µM (inactive) | 9.14 µM (inactive) | 2.27 µM (inactive) | 2 µM (inactive) | 14.9 µM (inactive) | 9.82 µM (inactive)
CN(CCNC(=O)c1c[nH]c2c1Cc1ccccc1-2)CCNC(=O)c1c[nH]c2c1Cc1ccccc1-2 | 43.2 µM (inactive) | 48.6 µM (inactive) | 35 µM (inactive) | 37.1 µM (inactive) | 36.1 µM (inactive) | 35.1 µM (inactive) | 29.9 µM (inactive) | 22.9 µM (inactive) | 82.8 µM (inactive) | 19.6 µM (inactive) | 26.5 µM (inactive) | 26.9 µM (inactive) | 20.6 µM (inactive) | – | 66.4 µM (inactive) | 58.2 µM (inactive) | 29.6 µM (inactive) | 18.5 µM (inactive) | 43.8 µM (inactive) | 18 µM (inactive)
NS(=O)(=O)c1ccc(NNc2c3ccccc3nc3c(C(=O)Nc4ccc(S(=O)(=O)Nc5ncccn5)cc4)cccc23)cc1 | > 25 µM (inactive) | > 25 µM (inactive) | > 25 µM (inactive) | > 25 µM (inactive) | > 25 µM (inactive) | 10.2 µM (inactive) | > 25 µM (inactive) | > 25 µM (inactive) | > 25 µM (inactive) | > 25 µM (inactive) | > 25 µM (inactive) | > 25 µM (inactive) | > 25 µM (inactive) | > 25 µM (inactive) | > 25 µM (inactive) | > 25 µM (inactive) | > 25 µM (inactive) | > 25 µM (inactive) | > 25 µM (inactive) | > 25 µM (inactive)
C=C(Br)CN(C#N)CC(=C)Br | > 100 µM (inactive) | > 100 µM (inactive) | > 100 µM (inactive) | > 100 µM (inactive) | > 100 µM (inactive) | > 100 µM (inactive) | > 100 µM (inactive) | > 100 µM (inactive) | > 100 µM (inactive) | > 100 µM (inactive) | > 100 µM (inactive) | > 100 µM (inactive) | > 100 µM (inactive) | > 100 µM (inactive) | > 100 µM (inactive) | > 100 µM (inactive) | > 100 µM (inactive) | > 100 µM (inactive) | > 100 µM (inactive) | > 100 µM (inactive)
O=C1CC(CC(O)[C@@H]2CCCC[C@@H]2O)CC(=O)N1c1ccccc1 (some centres undefined) | > 100 µM (inactive) | > 100 µM (inactive) | – | – | > 100 µM (inactive) | > 100 µM (inactive) | > 100 µM (inactive) | > 100 µM (inactive) | > 100 µM (inactive) | > 100 µM (inactive) | > 100 µM (inactive) | > 100 µM (inactive) | – | – | > 100 µM (inactive) | > 100 µM (inactive) | > 100 µM (inactive) | > 100 µM (inactive) | > 100 µM (inactive) | > 100 µM (inactive)
Cn1c2c3ccc(Cl)cc3nc-2c(Cl)c2ccccc21 | 27.3 µM (inactive) | 17.3 µM (inactive) | 12.2 µM (inactive) | 22.9 µM (inactive) | 1.71 µM (inactive) | 15.3 µM (inactive) | 13.3 µM (inactive) | 26.2 µM (inactive) | 18.2 µM (inactive) | 17.9 µM (inactive) | 4.31 µM (inactive) | 15.2 µM (inactive) | 21.4 µM (inactive) | 49.4 µM (inactive) | 14.4 µM (inactive) | 22.9 µM (inactive) | 6.15 µM (inactive) | 10.9 µM (inactive) | 17.5 µM (inactive) | 20.4 µM (inactive)
CCOC(=O)C1=C(O)C2C3CC4C2C(O)=C(C(=O)OCC)C2C1C3C42 (centres undefined) | > 100 µM (inactive) | > 100 µM (inactive) | > 100 µM (inactive) | > 100 µM (inactive) | > 100 µM (inactive) | > 100 µM (inactive) | 98.6 µM (inactive) | > 100 µM (inactive) | > 100 µM (inactive) | > 100 µM (inactive) | 84.5 µM (inactive) | > 100 µM (inactive) | > 100 µM (inactive) | > 100 µM (inactive) | > 100 µM (inactive) | > 100 µM (inactive) | 45.3 µM (inactive) | > 100 µM (inactive) | > 100 µM (inactive) | > 100 µM (inactive)
Nc1ccc(Cn2ccc3c4c(N)nc(N)nc4ccc32)cc1 | < 0.01 µM (active) | 0.0119 µM (active) | 0.628 µM (active) | 6.47 µM (inactive) | < 0.01 µM (active) | < 0.01 µM (active) | < 0.01 µM (active) | 0.0351 µM (active) | 0.137 µM (active) | 0.0847 µM (active) | 0.165 µM (active) | < 0.01 µM (active) | 1.17 µM (inactive) | 12.3 µM (inactive) | < 0.0207 µM (active) | 0.3 µM (active) | 0.0393 µM (active) | < 0.01 µM (active) | – | < 0.01 µM (active)
CN1CCOC1(C)CO (centres undefined) | > 100 µM (inactive) | > 100 µM (inactive) | > 100 µM (inactive) | > 100 µM (inactive) | > 100 µM (inactive) | > 100 µM (inactive) | > 100 µM (inactive) | > 100 µM (inactive) | > 100 µM (inactive) | > 100 µM (inactive) | > 100 µM (inactive) | > 100 µM (inactive) | > 100 µM (inactive) | > 100 µM (inactive) | – | > 100 µM (inactive) | > 100 µM (inactive) | > 100 µM (inactive) | > 100 µM (inactive) | > 100 µM (inactive)
CCC(C)[C@@H](NC1=C(Cl)C(=O)c2c(O)ccc(O)c2C1=O)C(=O)OC (some centres undefined) | 3.89 µM (inactive) | 6.46 µM (inactive) | 2.13 µM (inactive) | 9.23 µM (inactive) | 2.4 µM (inactive) | 3.01 µM (inactive) | 3.21 µM (inactive) | 3.61 µM (inactive) | 1.8 µM (inactive) | 2.67 µM (inactive) | 2.28 µM (inactive) | 4.92 µM (inactive) | 4.2 µM (inactive) | 6.68 µM (inactive) | 3.66 µM (inactive) | > 10 µM (inactive) | 1.06 µM (active) | 3.78 µM (inactive) | 2.18 µM (inactive) | 3.37 µM (inactive)
